Reference: PMC5059758, “Structural characterization of antibiotic self-immunity tRNA synthetase in plant tumour biocontrol agent” (Nature Communications, 2016)

Tests used:
[1] = molecular target: T1, AgnB2 (TM84-resistant leucyl-tRNA synthetase) (Agrobacterium radiobacter K84 (plasmid pAgK84)) (UniProt B9JQP8); assay: ITC
T1 sequence: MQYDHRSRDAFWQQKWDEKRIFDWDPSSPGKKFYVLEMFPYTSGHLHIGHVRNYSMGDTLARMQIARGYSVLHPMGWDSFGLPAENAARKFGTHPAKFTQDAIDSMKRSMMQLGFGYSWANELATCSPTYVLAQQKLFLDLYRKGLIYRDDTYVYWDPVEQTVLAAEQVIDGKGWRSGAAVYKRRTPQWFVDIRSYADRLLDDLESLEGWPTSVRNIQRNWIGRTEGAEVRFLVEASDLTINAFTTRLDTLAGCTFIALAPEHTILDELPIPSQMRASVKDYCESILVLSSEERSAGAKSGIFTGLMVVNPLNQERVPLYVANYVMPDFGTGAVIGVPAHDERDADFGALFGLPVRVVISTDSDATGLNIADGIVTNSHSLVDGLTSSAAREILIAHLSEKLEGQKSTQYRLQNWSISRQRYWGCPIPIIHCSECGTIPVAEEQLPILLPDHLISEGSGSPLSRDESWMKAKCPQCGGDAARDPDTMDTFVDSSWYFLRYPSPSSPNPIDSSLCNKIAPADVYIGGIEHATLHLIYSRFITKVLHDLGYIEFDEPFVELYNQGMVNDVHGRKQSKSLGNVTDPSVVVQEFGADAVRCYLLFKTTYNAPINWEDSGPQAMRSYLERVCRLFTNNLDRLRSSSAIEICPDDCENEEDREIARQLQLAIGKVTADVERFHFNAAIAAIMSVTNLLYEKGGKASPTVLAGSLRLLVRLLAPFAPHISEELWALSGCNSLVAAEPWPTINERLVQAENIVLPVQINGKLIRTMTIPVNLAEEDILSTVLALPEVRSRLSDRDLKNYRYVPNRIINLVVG

[2] = molecular target: LeuRSAt (Agrobacterium tumefaciens, UniProt Q8UBV2); assay: ATP/PPi exchange assay (amino acid activation), LeuRSAt; type: biochemical, A. tumefaciens; details: ATP-PPi exchange, substrate, 28 °C, pH 7.4
Sequence of LeuRSAt (Q8UBV2 whole entry): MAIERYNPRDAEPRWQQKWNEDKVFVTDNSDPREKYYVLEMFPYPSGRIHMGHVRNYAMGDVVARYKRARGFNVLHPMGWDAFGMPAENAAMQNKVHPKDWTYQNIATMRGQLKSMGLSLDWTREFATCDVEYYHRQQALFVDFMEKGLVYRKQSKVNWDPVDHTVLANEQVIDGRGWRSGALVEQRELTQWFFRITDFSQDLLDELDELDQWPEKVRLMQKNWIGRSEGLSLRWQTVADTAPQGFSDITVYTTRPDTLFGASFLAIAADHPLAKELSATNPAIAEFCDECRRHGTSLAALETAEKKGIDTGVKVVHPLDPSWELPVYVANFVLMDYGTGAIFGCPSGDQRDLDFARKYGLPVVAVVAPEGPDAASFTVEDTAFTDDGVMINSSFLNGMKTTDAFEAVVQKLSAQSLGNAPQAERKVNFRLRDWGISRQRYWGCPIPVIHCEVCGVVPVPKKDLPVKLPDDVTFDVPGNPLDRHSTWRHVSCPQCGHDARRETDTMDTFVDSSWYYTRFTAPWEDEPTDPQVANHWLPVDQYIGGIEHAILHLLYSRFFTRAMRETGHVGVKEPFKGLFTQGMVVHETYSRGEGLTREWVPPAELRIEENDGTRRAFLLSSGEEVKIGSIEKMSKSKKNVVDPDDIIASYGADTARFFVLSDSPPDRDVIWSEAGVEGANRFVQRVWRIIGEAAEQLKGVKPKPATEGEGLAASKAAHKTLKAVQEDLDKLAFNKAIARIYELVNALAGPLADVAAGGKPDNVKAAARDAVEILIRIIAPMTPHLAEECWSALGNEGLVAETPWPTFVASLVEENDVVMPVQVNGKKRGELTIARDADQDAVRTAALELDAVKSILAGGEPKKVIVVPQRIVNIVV
Experimental: (§1) The formation of Leu-AMP by ATP/PPi exchange assays was performed as described earlier. Briefly, the reaction buffer contained 50 mM HEPES buffer (pH 7.4), 20 mM KCl, 10 mM MgCl2, 500 μM L-leucine, 4 mM ATP, 1 mM tetrasodium pyrophosphate (NaPPi), 10 μCi/mmol [^32P] NaPPi and 1 μM bovine serum albumin (BSA). The reaction was initiated by addition of 1–4 nM of active enzyme and incubated at 28 °C. Aliquots (5 μl each) were collected over 30 min and quenched in a 10% charcoal slurry containing 0.5% HCl and 50 μl of 200 mM sodium pyrophosphate in 1 M HCl. Liquid scintillation counting was then used to measure the amount of [^32P]-PPi incorporation into ATP that was adsorbed onto the charcoal.

[3] = molecular target: T2, wt AgnB2 (LeuRS) (Agrobacterium radiobacter, UniProt B9JQP8); assay: ATP/PPi exchange assay (amino acid activation), AgnB2; details: ATP-PPi exchange, substrate, 28 °C, pH 7.4
Experimental: The formation of Leu-AMP by ATP/PPi exchange assays was performed as described earlier[23][50]. Briefly, the reaction buffer contained 50 mM HEPES buffer (pH 7.4), 20 mM KCl, 10 mM MgCl2, 500 μM L-leucine, 4 mM ATP, 1 mM tetrasodium pyrophosphate (NaPPi), 10 μCi/mmol [^32P] NaPPi and 1 μM bovine serum albumin (BSA). The reaction was initiated by addition of 1–4 nM of active enzyme and incubated at 28 °C. Aliquots (5 μl each) were collected over 30 min and quenched in a 10% charcoal slurry containing 0.5% HCl and 50 μl of 200 mM sodium pyrophosphate in 1 M HCl. Liquid scintillation counting was then used to measure the amount of [^32P]-PPi incorporation into ATP that was adsorbed onto the charcoal.

[4] = molecular target: T2, wt AgnB2 (LeuRS); assay: Aminoacylation assay, wt AgnB2; details: aminoacylation, substrate, 28 °C, pH 7.4
Experimental: Aminoacylation activities of AgnB2, LeuRSAt and their mutants were measured in 50 mM HEPES buffer (pH 7.4) containing 20 mM KCl, 25 mM MgCl2, 25 mM β-ME, 4 mM ATP, 500 μM [3,4,5-^3H] L-leucine (20 μCi/mmole), 5 μg/ml inorganic pyrophosphatase, 1 μM BSA, 10 μM of active in vitro transcribed tRNA^Leu and enzymes in the range of 2–8 nM. Reactions were pre-incubated with or without substrate and/or inhibitor and then carried out at 28 °C (37 °C-LeuRSHp). Aliquots of the reaction (5–10 μl) were quenched on 3 mM filter pads (Whatman, GE Healthcare) presoaked with 5% trichloroacetic acid (TCA). The pads were washed thrice with 5% TCA and 90% ethanol at 4 °C and then dried. The amount of Leu-tRNA^Leu was then quantified using scintillation counting. Each reaction was performed in triplicate and analyzed using Kaleidagraph (for Km and kcat determinations) or GraphPad Prism software (for IC50 determination).

[5] = test system: LeuRSAt (leucyl-tRNA synthetase); details: aminoacylation, substrate, 28 °C, pH 7.4; cited from earlier work
[6] = test system: CC(C)C[C@H](N)C(=O)O; assay: ATP/PPi exchange assay (amino acid activation), LeuRSAt; type: biochemical, A. tumefaciens; details: other: ATP-PPi exchange, substrate, 28 °C, pH 7.4
Experimental: as §1

[7] = test system: CC(C)C[C@H](N)C(=O)O; assay: purified protein, by the assay type; details: substrate, 28 °C, pH 7.4

Question: For tRNALeu (agrobacterial), which Kd [1] is on record?
Answer: 310 nM

Question: Which Km [2] does the source give for Nc1ncnc2c1ncn2[C@@H]1O[C@H](COP(=O)(O)OP(=O)(O)OP(=O)(O)O)[C@@H](O)[C@H]1O [ATP] here?
Answer: 357 ± 22 µM

Question: And the kcat [2]?
Answer: 87 ± 1.5 s⁻¹

Question: What about the Km [3] of the same compound?
Answer: 1050 ± 140 µM

Question: And the kcat [3]?
Answer: 67 ± 8.9 s⁻¹

Question: And the Km [4]?
Answer: 95.4 ± 18.3 µM

Question: What about the kcat [4] of the same compound?
Answer: 0.43 ± 0.02 s⁻¹

Question: What about the Km [5] of the same compound?
Answer: 396 ± 83 µM

Question: And the kcat [5]?
Answer: 0.33 ± 0.02 s⁻¹

Question: With LeuRSAt (Agrobacterium fabrum str. C58) as the compound, how does the Km [6] read?
Answer: 9.7 ± 0.7 µM

Question: And the kcat [6]?
Answer: 85 ± 1.6 s⁻¹

Question: For “wt AgnB2 (LeuRS) (Rhizobium rhizogenes K84)”, which Km ([7]; other: ATP-PPi exchange) is on record?
Answer: 12 ± 2 µM

Question: And the kcat ([7]; other: ATP-PPi exchange)?
Answer: 73 ± 3.6 s⁻¹

Question: And the Km ([7]; other: aminoacylation)?
Answer: 28.7 ± 7.3 µM

Question: And the kcat ([7]; other: aminoacylation)?
Answer: 0.35 ± 0.03 s⁻¹
